Data as given in PubChem BioAssay (NCI).
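Tested at 5 concentrations; 48 h exposure; 96-well plates; endpoints linearly interpolated, else capped at highest concentration. TGI: concentration producing complete growth inhibition.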

Tests used:
Assay in all cases: inhibition of tumour cell growth, NCI panel, 48 h
NCI/ADR-RES ovarian = tested on: NCI/ADR-RES ovarian
SK-MEL-5 melanoma = tested on: SK-MEL-5 melanoma
HOP-92 NSCLC = tested on: HOP-92 NSCLC
UACC-257 melanoma = tested on: UACC-257 melanoma
K-562 leukemia = tested on: K-562 leukemia
OVCAR-4 ovarian = tested on: OVCAR-4 ovarian
DU-145 prostate = tested on: DU-145 prostate
SN12C renal = tested on: SN12C renal
RPMI-8226 leukemia = tested on: RPMI-8226 leukemia
786-0 renal = tested on: 786-0 renal
MDA-N = tested on: MDA-N
RXF 393 renal = tested on: RXF 393 renal
HCC-2998 colon = tested on: HCC-2998 colon
SK-OV-3 ovarian = tested on: SK-OV-3 ovarian
MDA-MB-231 breast = tested on: MDA-MB-231 breast
HCT-15 colon = tested on: HCT-15 colon
SK-MEL-28 melanoma = tested on: SK-MEL-28 melanoma
SK-MEL-2 melanoma = tested on: SK-MEL-2 melanoma
HS 578T breast = tested on: HS 578T breast
SNB-19 CNS = tested on: SNB-19 CNS
LOX IMVI melanoma = tested on: LOX IMVI melanoma
T-47D breast = tested on: T-47D breast
NCI-H226 lung = tested on: NCI-H226 lung
HT29 colon = tested on: HT29 colon
SW-620 colon = tested on: SW-620 colon
EKVX NSCLC = tested on: EKVX NSCLC
MCF7 breast = tested on: MCF7 breast
CAKI-1 renal = tested on: CAKI-1 renal
SNB-75 CNS = tested on: SNB-75 CNS
CCRF-CEM leukemia = tested on: CCRF-CEM leukemia
ACHN renal = tested on: ACHN renal
MOLT-4 leukemia = tested on: MOLT-4 leukemia
U251 CNS = tested on: U251 CNS
SF-539 CNS = tested on: SF-539 CNS
SF-268 CNS = tested on: SF-268 CNS
A498 renal = tested on: A498 renal
HL-60(TB) leukemia = tested on: HL-60(TB) leukemia
M14 melanoma = tested on: M14 melanoma
MALME-3M melanoma = tested on: MALME-3M melanoma
SR leukemia = tested on: SR leukemia
COLO 205 colon = tested on: COLO 205 colon
MDA-MB-435 = tested on: MDA-MB-435
NCI-H23 lung = tested on: NCI-H23 lung
HCT-116 colon = tested on: HCT-116 colon
TK-10 renal = tested on: TK-10 renal
UO-31 renal = tested on: UO-31 renal
NCI-H460 lung = tested on: NCI-H460 lung
OVCAR-5 ovarian = tested on: OVCAR-5 ovarian
SF-295 CNS = tested on: SF-295 CNS
KM12 colon = tested on: KM12 colon
HOP-62 NSCLC = tested on: HOP-62 NSCLC
A549 NSCLC = tested on: A549 NSCLC
OVCAR-3 ovarian = tested on: OVCAR-3 ovarian
PC-3 prostate = tested on: PC-3 prostate
UACC-62 melanoma = tested on: UACC-62 melanoma
OVCAR-8 ovarian = tested on: OVCAR-8 ovarian
IGROV1 ovarian = tested on: IGROV1 ovarian
NCI-H522 lung = tested on: NCI-H522 lung

CN(C)c1ccc(C2CC(=O)CC(c3ccc(N(C)C)cc3)C23C(=O)NC(=S)NC3=O)cc1 (stereo unspecified)
TGI (NCI/ADR-RES ovarian): > 100 µM | TGI (SK-MEL-5 melanoma): > 100 µM | TGI (HOP-92 NSCLC): > 100 µM | TGI (UACC-257 melanoma): > 100 µM | TGI (K-562 leukemia): > 100 µM | TGI (OVCAR-4 ovarian): > 100 µM | TGI (DU-145 prostate): > 100 µM | TGI (SN12C renal): > 100 µM | TGI (RPMI-8226 leukemia): > 100 µM | TGI (786-0 renal): > 100 µM | TGI (MDA-N): > 100 µM | TGI (RXF 393 renal): > 100 µM | TGI (HCC-2998 colon): > 100 µM | TGI (SK-OV-3 ovarian): > 100 µM | TGI (MDA-MB-231 breast): > 100 µM | TGI (HCT-15 colon): > 100 µM | TGI (SK-MEL-28 melanoma): > 100 µM | TGI (SK-MEL-2 melanoma): > 100 µM | TGI (HS 578T breast): > 100 µM | TGI (SNB-19 CNS): > 100 µM | TGI (LOX IMVI melanoma): > 100 µM | TGI (T-47D breast): > 100 µM | TGI (NCI-H226 lung): > 100 µM | TGI (HT29 colon): > 100 µM | TGI (SW-620 colon): > 100 µM | TGI (EKVX NSCLC): > 100 µM | TGI (MCF7 breast): > 100 µM | TGI (CAKI-1 renal): > 100 µM | TGI (SNB-75 CNS): 31.2 µM | TGI (CCRF-CEM leukemia): > 100 µM | TGI (ACHN renal): > 100 µM | TGI (MOLT-4 leukemia): > 100 µM | TGI (U251 CNS): > 100 µM | TGI (SF-539 CNS): > 100 µM | TGI (SF-268 CNS): > 100 µM | TGI (A498 renal): > 100 µM | TGI (HL-60(TB) leukemia): > 100 µM | TGI (M14 melanoma): > 100 µM | TGI (MALME-3M melanoma): > 100 µM | TGI (SR leukemia): > 100 µM | TGI (COLO 205 colon): > 100 µM | TGI (MDA-MB-435): > 100 µM | TGI (NCI-H23 lung): > 100 µM | TGI (HCT-116 colon): > 100 µM | TGI (TK-10 renal): > 100 µM | TGI (UO-31 renal): > 100 µM | TGI (NCI-H460 lung): > 100 µM | TGI (OVCAR-5 ovarian): > 100 µM | TGI (SF-295 CNS): > 100 µM | TGI (KM12 colon): > 100 µM | TGI (HOP-62 NSCLC): 45.6 µM | TGI (A549 NSCLC): > 100 µM | TGI (OVCAR-3 ovarian): > 100 µM | TGI (PC-3 prostate): > 100 µM | TGI (UACC-62 melanoma): > 100 µM

OCCN(CCO)c1nc(N2CCCCC2)c2nc(N(CCO)CCO)nc(N3CCCCC3)c2n1
TGI (NCI/ADR-RES ovarian): > 100 µM | TGI (SK-MEL-5 melanoma): 41.8 µM | TGI (HOP-92 NSCLC): 36.4 µM | TGI (UACC-257 melanoma): > 100 µM | TGI (K-562 leukemia): > 100 µM | TGI (OVCAR-4 ovarian): > 100 µM | TGI (DU-145 prostate): > 100 µM | TGI (SN12C renal): > 100 µM | TGI (786-0 renal): > 100 µM | TGI (MDA-N): > 100 µM | TGI (HCC-2998 colon): 36.4 µM | TGI (OVCAR-8 ovarian): > 100 µM | TGI (MDA-MB-231 breast): > 100 µM | TGI (HCT-15 colon): > 100 µM | TGI (SK-MEL-28 melanoma): > 100 µM | TGI (SK-MEL-2 melanoma): > 100 µM | TGI (HS 578T breast): 79.6 µM | TGI (LOX IMVI melanoma): > 100 µM | TGI (T-47D breast): > 100 µM | TGI (NCI-H226 lung): > 100 µM | TGI (HT29 colon): 40 µM | TGI (SW-620 colon): > 100 µM | TGI (EKVX NSCLC): > 100 µM | TGI (CAKI-1 renal): > 100 µM | TGI (CCRF-CEM leukemia): > 100 µM | TGI (ACHN renal): > 100 µM | TGI (MOLT-4 leukemia): 56.5 µM | TGI (HL-60(TB) leukemia): 36.5 µM | TGI (M14 melanoma): > 100 µM | TGI (MALME-3M melanoma): 46 µM | TGI (IGROV1 ovarian): > 100 µM | TGI (SR leukemia): 22.2 µM | TGI (COLO 205 colon): > 100 µM | TGI (MDA-MB-435): > 100 µM | TGI (NCI-H23 lung): > 100 µM | TGI (HCT-116 colon): > 100 µM | TGI (TK-10 renal): 64.6 µM | TGI (UO-31 renal): > 100 µM | TGI (NCI-H460 lung): > 100 µM | TGI (OVCAR-5 ovarian): > 100 µM | TGI (KM12 colon): > 100 µM | TGI (HOP-62 NSCLC): > 100 µM | TGI (NCI-H522 lung): 39.6 µM | TGI (A549 NSCLC): > 100 µM | TGI (OVCAR-3 ovarian): 32.6 µM | TGI (PC-3 prostate): > 100 µM
